Laboratory results as given in patent publication US20120305840A1, “CARBON DIOXIDE ABSORBING SOLUTION” (Kabushiki Kaisha Toshiba, priority 2009, published 2012).

Key:
[1] = Precipitation in the absorbing solution after absorbing carbon dioxide; assay type: physicochemical
[2] = Volatility: decreased amount of absorbent by 1H-NMR after heating; assay type: physicochemical; details: 60 minutes at 140° C.
Experimental: According to the decreased amount, the volatility was evaluated. The less the decreased amount was, the less volatile the absorbent was regarded as. In general, if containing a less volatile absorbent, the absorbing solution can be repeatedly regenerated without decrease of the absorbent content.

Row | Structure (SMILES) | precipitation in the absorbing solutions on absorbing carbon dioxide to form products [1] | volatility of the absorbent (in words) [2]
1 | O=C([O-])C1CNC1.[K+] [absorbent 1, potassium 1-aza-azetidine-3-carboxylate] | did not precipitate | hardly volatilize
2 | O=C([O-])C1CCCN1.[K+] (stereo not shown) [absorbent 2, pyrrolidine-2-carboxylic acid salt] | did not precipitate | hardly volatilize
